In US20060292243A1, “Arsenic compounds for the treatment of the arsenic-sensitive blast-cell related diseases” (priority 2005, published 2006):

System: NZB/NZW mice
Test: Survival of SLE model mice
Assay type: in vivo
Experimental: In vivo studies on the activity of arsenic compound were carried out by using an experimental animal model of human Systemic Lupus Erythematosus. NZB/NZW denotes the mouse strain that spontaneously develops an autoimmune syndrome having notable similarities to human Systemic Lupus Erythematosus. Autoimmune disease in NZB/NZW mice is characterized by antinuclear antibodies (IgG) production about 4 months of age, and glomerulonephritis with proteinuria is developed when at 9 months of age, and that is the major cause of death (uremia).
At 24 weeks of age, mice (3 groups) were treated 3 times per week with PBS (Group I as positive control), 2.5 mg/kg of As2O3 (Group II), or 5 mg/kg of As2O3 (Group III) administered intraperitoneally. The treatment was stopped at 28 weeks of age. Mice were observed daily for clinical signs of disease and for mortality and were bled every 4 weeks for determination of anti-DNA antibody production.
Coincident with ameliorating the clinical signs of severe immune complex nephritis, a dramatic prolongation of survival was observed.

arsenic trioxide
survival rate (%) (2.5 mg/kg, 0 weeks): 100%
survival rate (%) (2.5 mg/kg, 22 weeks): 100%
survival rate (%) (2.5 mg/kg, 31 weeks): 100%
survival rate (%) (2.5 mg/kg, 38 weeks): 83.3%
survival rate (%) (2.5 mg/kg, 39 weeks): 66.7%
survival rate (%) (2.5 mg/kg, 40 weeks): 66.7%
survival rate (%) (2.5 mg/kg, 41 weeks): 66.7%
survival rate (%) (2.5 mg/kg, 42 weeks): 50%
survival rate (%) (5 mg/kg, 0 weeks): 100%
survival rate (%) (5 mg/kg, 22 weeks): 100%
survival rate (%) (5 mg/kg, 31 weeks): 66.7%
survival rate (%) (5 mg/kg, 38 weeks): 66.7%
survival rate (%) (5 mg/kg, 39 weeks): 66.7%
survival rate (%) (5 mg/kg, 40 weeks): 66.7%
survival rate (%) (5 mg/kg, 41 weeks): 66.7%
survival rate (%) (5 mg/kg, 42 weeks): 66.7%
treated mice still alive (after 43 weeks): 50%
